In data set [1] the test system is SH-SY5Y cells. Briefly: ROS measurement (H2DCF-DA, flow cytometry) after H2O2 insult. In kind it is cell-based, human. The conditions noted are these: for ROS measurement 250 nM / ROS measurement 500 nM / ROS measurement 1 μM / ROS measurement 10 μM: fluorescence relative to control = 1, H2O2 (100 μM) alone 6.31, 24 h + 3 h; for ROS measurement 250 nM: hybrid 250 nM; for ROS measurement 500 nM: hybrid 500 nM; for ROS measurement 1 μM: hybrid 1 μM; for ROS measurement 10 μM: hybrid 10 μM. The procedure:
H2DCF-DA is a molecule that easily diffuses into cells and, through intracellular esterases, is split into H2DCF following the loss of the acetate group. H2DCF remains trapped within cells and is oxidized by intracellular ROS to form the highly fluorescent DCF compound. Spectrofluorimetric quantification of the DCF probe, provides the content of the ROS in the cell.
[…]. Subsequently, the growth medium was replaced with a fresh phenol red-free medium containing H2DCF-DA (25 μM). After 30 min at 37°C, the cells were washed twice to remove the extracellular H2DCF-DA, centrifuged, re-suspended in PBS, exposed to H2O2 (100 μM, 30 min) and the fluorescence was evaluated by flow cytometric analysis using a FACS Accury laser flow cytometer (Becton Dickinson). The results were expressed by setting the control equal to 1 and reporting all other values. H2O2 alone was used as a positive control.
For orientation: In flow cytometry, cells or beads pass a laser one at a time.

Data set [2] relates to SH-SY5Y cells. Briefly: MTT cell viability assay. Type of data set: cell-based, human. Particulars: for IC50: Homo sapiens, neurotoxic concentration, SH-SY5Y; for Effect on cell viability: 0.25–100 μM, 24 h. The source says:
The MTT test is based on the observation that live cells can reduce the water-soluble yellow tetrazolium salt [3-(4,5-dimethylthiazol-2-yl)-2,5-diphenyltetrazolium bromide] into water-insoluble blue/magenta formazan crystals, by dehydrogenase of the active mitochondria. Dissolved formazan crystals can be quantified using a spectrophotometer and the values obtained are in direct correlation to the number of metabolically active cells. For this reason, this colorimetric assay is used to evaluate cell viability.
The MTT assay was performed as reported in literature ([Corasaniti et al., 2007]). […].
The optical density was measured at wavelengths of 540 and 690 nm using a spectrophotometer (X MARK Spectrophotometer Microplate Bio-Rad).
On the technique in general: Tetrazolium assays rely on reduction of a dye to a coloured formazan, in cell work by metabolically active cells.

A short description of data set [3]: Metal-chelating properties by UV-vis spectroscopy. The conditions noted are these: compound 75 μM with CuSO4, FeSO4, FeCl3 or ZnCl2 150 μM in MeOH, 30 min. The procedure: The complexing studies for all the unprotected hybrids were carried out through a UV–vis spectroscopy assay with the wavelength ranging from 200 to 400 nm. The unprotected hybrids were dissolved in a 5% DMSO methanolic solution (3 mM). This solution was diluted with methanol to 150 µM. 2 ml of the 150 µM solution were mixed with 2 ml of methanol to record the spectra of the hybrids alone, or with 2 ml of the salts solution (300 µM). Then, the absorption spectra of the antioxidants (75 μM) alone or in the presence of CuSO4, FeSO4, FeCl3 or ZnCl2 (150 μM) mixed for 30 min in methanol at room temperature were recorded in a 1 cm quartz cell.

Data set [4] in a line: Cupric ion reducing antioxidant capacity (CUPRAC). The conditions noted are these: for TEAC: Supplementary Table 1, ε of compound divided by ε of Trolox; for CUPRAC: Trolox equivalent, 2% M-β-CD, A450 after 40 min. The procedure: The CUPRAC test was performed as reported by [Ozyürek et al. (2008)] on the new compounds in the unacetylated form.
CuCl2 solution 10 mM, was prepared by dissolving […] CuCl2 in water, and diluting to 250 ml. Neocuproine (Nc) solution 7.5 mM, was prepared by dissolving 15 mg of neocuproine in 10 ml of absolute EtOH. Ammonium acetate 1.0 M was prepared by dissolving 19.27 g of NH4Ac in 250 ml of water. The cyclodextrin (2% M-β-CD) stock solution was prepared in water-acetone (9:1 v/v). The standard solution of Trolox 1 mM was prepared in 2% M-β-CD. All working solutions of antioxidant 1 mM were freshly prepared in 2% M-β-CD.
1 ml of Cu(II) + 1 ml of Nc + 1 ml of NH4Ac buffer + x mL of antioxidant solution + (1.1 − x) 2% M-β-CD in 1:9 water–acetone mixture (v/v); total volume = 4.1 ml, measure A 450 against a reagent blank after 40 min of reagent addition at room temperature.
The Trolox equivalent antioxidant capacity (TEAC) is defined as the millimolar concentration of a Trolox solution having the antioxidant capacity equivalent to a 1.0 mM solution of the substance under investigation. The […] values were simply calculated by dividing the molar absorptivity ε of the species under investigation by that of Trolox under corresponding conditions. The concentration linearity ranges for all the antioxidants tested are reported in the Supplementary Material (See Supplementary Table S1).

Data set [5] is described as follows: Oxygen radical absorbance capacity (ORAC) by fluorescence. Particulars: for ORAC: means ± SEM of three independent observations, sample 10 μM in 7% RMCD solution. The procedure: The measurement temperature was set at 37°C. A regression equation was built by comparing the net area under the FL decay curve and the Trolox concentration according to the following equation: Y(µM Trolox)=a+bX(AUC−n) and the final ORACFL values were expressed as Trolox equivalents (μmol g^−1).

Data set [6] deals with SH-SY5Y cells. The experiment in a line: MTT cell viability after H2O2 damage (neuroprotection). In kind it is cell-based, human. The conditions noted are these: hybrids 21 h, then H2O2 100 μM 3 h; vs hydrogen peroxide alone.

Entries after “also recorded” stand apart in the source; their conditions may differ.

What is called IC50 is the concentration that gives 50% inhibition. As for `O=C(OCCc1ccc(O)c(O)c1)C1CCN(Cc2ccccc2)CC1` [HT1], in data set [1], the “ROS measurement 250 nM” value is reported as 6.18, the “ROS measurement 500 nM” value is on record as 5.25, the “ROS measurement 1 μM” value came to 5.47 and the “ROS measurement 10 μM” value turned out to be 5.49. The IC50 in data set [2] was found to be 50 µM. Further, in data set [3], the Metal chelating activity entry is listed as “able to chelate only Copper (II) efficiently; also recorded: showed metal chelating properties”. Also, in data set [4], the TEAC was 3,36 and the CUPRAC is 3.36 (mmol of trolox)/(mmol of tested compound). For the same molecule, the ORAC in data set [5] stood at 21.2 ± 1.6 µmol trolox l^−1.
In the case of `CC(=O)Oc1ccc(CCOC(=O)C2CCN(Cc3ccccc3)CC2)cc1OC(C)=O` [HT1a], in data set [1], the “ROS measurement 250 nM” value was determined as 2.99, the “ROS measurement 500 nM” value was found to be 2.63, the “ROS measurement 1 μM” value is listed as 2.51 and the “ROS measurement 10 μM” value stood at 2.66. Further, the IC50 in data set [2] is more than 50 µM.
As to `O=C(OCCc1cc(O)c(O)cc1[N+](=O)[O-])C1CCN(Cc2ccccc2)CC1` [HT2], the “Reduction of ROS amount (in words)” value in data set [1] (H2O2 100 μM as toxic insult) was “the more effective one to reduce the ROS amount to the physiological values”. For the same molecule, in data set [1], the “ROS measurement 250 nM” value was 2.21, the “ROS measurement 500 nM” value is 1.97, the “ROS measurement 1 μM” value is reported as 1.12 and the “ROS measurement 10 μM” value is recorded as 1.38. The molecule further returned an IC50 in data set [2] of more than 50 µM. Moreover, the “Protective effect on cell viability against H2O2 damage” value (from here on “Protective effect on cell viability”) in data set [6] is “statistically significant increase in cell viability; also recorded: able to attenuate cell injury against oxidative stress”. Also, the Metal chelating activity result in data set [3] is “chelates all the metal cations; also recorded: showed metal chelating properties”. Moreover, in data set [4], the TEAC is recorded as 2,77 and the CUPRAC is 2.77 (mmol of trolox)/(mmol of tested compound). Also, in data set [5], the “Reduction of ORAC antioxidant capacity compared to HT1” value is on record as approximately 3 times and the ORAC is reported as 7.6 ± 0.2 µmol trolox l^−1.
As to `COc1cc(CCOC(=O)C2CCN(Cc3ccccc3)CC2)ccc1O` [HT3], in data set [1], the “ROS measurement 250 nM” value amounted to 3.68, the “ROS measurement 500 nM” value is 2.91, the “ROS measurement 1 μM” value stood at 2.18 and the “ROS measurement 10 μM” value is given as 2.76. For the same molecule, the IC50 in data set [2] was more than 25 µM. Further, in data set [4], the TEAC was 1,80 and the CUPRAC is listed as 1.80 (mmol of trolox)/(mmol of tested compound). Besides, the ORAC in data set [5] turned out to be 45.2 ± 3.6 µmol trolox l^−1.
As for `COc1cc(CCOC(=O)C2CCN(Cc3ccccc3)CC2)ccc1OC(C)=O` [HT3a], in data set [1], the “ROS measurement 250 nM” value stood at 2.27, the “ROS measurement 500 nM” value turned out to be 1.94, the “ROS measurement 1 μM” value amounted to 1.58 and the “ROS measurement 10 μM” value is reported as 2.13. Further, in data set [2], the “Effect on cell viability” value is “reduction in cell viability was found for compounds HT3a and HT4a at concentrations higher than 10 μM”; the IC50 was more than 10 µM. In addition, the “Protective effect on cell viability” value in data set [6] was “statistically significant increase in cell viability; also recorded: able to attenuate cell injury against oxidative stress”.
As for `O=C(OCCc1ccc(O)cc1)C1CCN(Cc2ccccc2)CC1` [HT4], in data set [1], the “ROS measurement 250 nM” value stood at 3.9, the “ROS measurement 500 nM” value was determined as 3.2, the “ROS measurement 1 μM” value is 3.64 and the “ROS measurement 10 μM” value is 3.67. The same molecule came in with a half-inhibitory concentration (IC50) in data set [2] of more than 25 µM. Further, in data set [4], the TEAC is given as 0,99 and the CUPRAC is given as 0.99 (mmol of trolox)/(mmol of tested compound). For the same molecule, in data set [5], the ORAC stood at 23.0 ± 2.0 µmol trolox l^−1.
As to `CC(=O)Oc1ccc(CCOC(=O)C2CCN(Cc3ccccc3)CC2)cc1` [HT4a], in data set [1], the “ROS measurement 250 nM” value came out at 2.34, the “ROS measurement 500 nM” value was determined as 2.77, the “ROS measurement 1 μM” value was found to be 2.94 and the “ROS measurement 10 μM” value is 3.01. In addition, in data set [2], the “Effect on cell viability” value is “reduction in cell viability was found for compounds HT3a and HT4a at concentrations higher than 10 μM”; the 50% inhibitory concentration (IC50) is more than 10 µM. Moreover, the “Protective effect on cell viability” value in data set [6] is “statistically significant increase in cell viability”.
Take `OCCc1ccc(O)c(O)c1` [HT, hydroxytyrosol, reference compound]: in data set [4], the TEAC was 2,82 and the CUPRAC was 2.82 (mmol of trolox)/(mmol of tested compound). For the same molecule, in data set [5], the ORAC worked out at 38.8 ± 4.4 µmol trolox l^−1.
Take `Cc1c(C)c2c(c(C)c1O)CCC(C)(C(=O)O)O2` (stereo not shown) [Trolox, reference compound]: in data set [4], the TEAC was determined as 1 and the CUPRAC is 1 (mmol of trolox)/(mmol of tested compound).

Values taken from article PMC8560896 (Frontiers in Chemistry, 2021).
